Results from PMC4069108 (PLoS ONE, 2014).

Legend:
[1] = target: T1, recombinant human MT1 receptor purified from Pichia pastoris (MT1 purified) (Homo sapiens, UniProt P48039); assay: [3H]-melatonin competition, PEG precipitation and filtration; assay type: binding; conditions: for MT1 purified / pKi ± SEM: purified in […] Fos14/[…] CHAPS; […] [3H]-melatonin, […] CHAPS/[…] CHS, pH […] MgCl2, […] °C, […] h
T1 construct: gene MTNR1A; alpha-factor signal, Flag and 10-His tags
Description: [3H]-melatonin competition, PEG precipitation and filtration on recombinant human MT1 receptor purified from Pichia pastoris (MT1 purified)

[2] = target: T2, human melatonin MT1 receptor (MT1 CHO membranes) (Homo sapiens, UniProt P48039); assay: [3H]-melatonin competition, filtration; assay type: binding; conditions: for MT1 CHO membranes / pKi ± SEM: CHO membranes; […] [3H]-melatonin, pH […] MgCl2, […] °C, […] h
T2 construct: gene MTNR1A; receptor cDNA in pcDNA3.1, no tag mentioned; crude membranes
Description: [3H]-melatonin competition, filtration on human melatonin MT1 receptor (MT1 CHO membranes)

T2 sequence (P48039 whole entry): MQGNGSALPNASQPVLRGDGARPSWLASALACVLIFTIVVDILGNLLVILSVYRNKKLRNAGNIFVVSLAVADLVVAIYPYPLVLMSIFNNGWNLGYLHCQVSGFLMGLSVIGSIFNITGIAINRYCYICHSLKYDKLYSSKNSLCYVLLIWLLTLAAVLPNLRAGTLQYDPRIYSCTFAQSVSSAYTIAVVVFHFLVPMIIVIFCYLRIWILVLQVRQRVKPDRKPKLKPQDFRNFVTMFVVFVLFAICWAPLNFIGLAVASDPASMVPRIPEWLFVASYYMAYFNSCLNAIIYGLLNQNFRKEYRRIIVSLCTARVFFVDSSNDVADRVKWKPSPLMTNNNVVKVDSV
T1 sequence (P48039 whole entry): as above

SMILES | MT1 purified / pKi ± SEM [1] | MT1 CHO membranes / pKi ± SEM [2] | Ki ([1]; read-out: MT1 purified / pKi ± SEM (converted)) [µM] | Ki ([2]; read-out: MT1 CHO membranes / pKi ± SEM (converted)) [µM]
COc1ccc(CCN(C)CCCC(C#N)(c2cc(OC)c(OC)c(OC)c2)C(C)C)cc1OC (centres unmarked) [D600] | 7.25±0.06 pKi (-log M) | 7.76±0.15 pKi (-log M) | – | –
COc1ccc2ncn(CCNC(C)=O)c2c1 [S 21278] | 7.02±0.14 pKi (-log M) | 7.71±0.14 pKi (-log M) | – | –
COc1ccc2[nH]c(-c3cccc4ccccc34)c(CCNC(=O)CI)c2n1 [S 70254] | 8.51±0.12 pKi (-log M) | 7.32±0.31 pKi (-log M) | – | –
NCCc1c[nH]c2ccc(O)cc12 [5HT] | – | – | > 10 | > 10
